# How the values were obtained:
# Type in all cases: physicochemical
# [1] = Solubility profile in dichloromethane; details: 20° C.-25° C.
# [2] = Stability of the crystal in the dry form
# [3] = Solubility and rate of dissolution in organo-solvents or oils (comparison of crystal forms); details: Form I vs Form II
Structure (SMILES),solubility profile in dichloromethane [1],stability [2],rate of dissolution in organo-solvents or oils relative to the other crystal form [3],solubility in organo-solvents or oils relative to the other crystal form [3]
"CC1=C(/C=C/C(C)=C/C=C/C(C)=C/C=C/C=C(C)/C=C/C=C(C)/C=C/C2=C(C)C(=O)C(O)CC2(C)C)C(C)(C)CC(O)C1=O (stereo not drawn) [Crystal Form I, 3,3′-dihydroxy-β,β-carotene-4,4′-dione]",35 to 45 g/L,stable in the dry form,higher,higher solubility
"CC1=C(/C=C/C(C)=C/C=C/C(C)=C/C=C/C=C(C)/C=C/C=C(C)/C=C/C2=C(C)C(=O)C(O)CC2(C)C)C(C)(C)CC(O)C1=O (stereo not drawn) [Crystal Form II, 3,3′-dihydroxy-β,β-carotene-4,4′-dione]",10-30 g/l,,,lower solubility

# Source: patent publication US7563935B2, “Crystal forms of astaxanthin” (Phares Pharmaceutical Research N.V. et al., priority 2005, dated 2009)
